Columns and labels:
EGFR = target: T1, EGFR (Homo sapiens, UniProt P00533); assay: Selective-inhibition assay in DHER14 cells (receptor phosphotyrosine, Western blot); format: cell-based; details: DHER14 cells expressing EGFR, 1 hour incubation, EGF stimulation
T1 construct: expressed in transfected cells; host or cells: NIH3T3 (DHER14 cells)
Protocol: NIH3T3 cells transformed with either the EGFR (DHER14 cells), with the HER1-HER2 chimera (CSH12 cells) or with the PDGFR (NIH/PDGFR cells), decribed by Lee et al.; 1989, Honegger et al., 1988; and Shawver et al. 1997, and A431 human epidermoid vulval carcinoma cells were grown in Dulbecco's modified Eagle's medium (DMEM) (Biological industries, Kibbuts Beit Haemek, Israel) supplemented with 10% fetal calf serum and antibiotics (penicillin […], streptomycin 100 mg/liter) at 37° C. in 5% CO2.
Selective-inhibition assay: CSH12, DHER14 and […] cells, expressing either the HER1-HER2 chimera, EGFR or PDGFR, respectively, were used for the determination of inhibitory selectivity. Cells (7.5×10^4) were grown in 6-well plates (35 mm diameter, Nalge Nunc) for 24 hours and then incubated in 0.25% FCS-containing medium for an additional 24 hours to about 90% confluence. Duplicate sets of cells were treated with the tested compounds at varying concentrations for 1 hour. The final concentration of the vehicle in the medium was 0.05% DMSO, 0.1% EtOH. After removal of the inhibitor from the medium, PBS wash (×2) and addition of 0.25% serum-containing medium to the wells, the cells were stimulated with either 20 ng/mL human EGF for 5 minutes (CSH12 and DHER14 cells) or 50 ng/ml human PDGFββ for 10 minutes ([…] cells) at 37° C. […]

[1] = Challenge reaction with reduced glutathione (HPLC conversion to conjugates); format: physicochemical
Protocol: Standard solutions were prepared by dissolving compound 5, Compound 6 and {4-[(3,4-dichloro-6-fluorophenyl)amino]quinazol ine-6-yl}acrylamide (0.0146 mmol) in 1.75 ml of THF: MeOH (1:2) and glutathione (18 mg, 0.0586 mmol) in 0.5 ml of water. A 300 μL aliquot of the quinazoline standard solution (2.5 μmol) was diluted with 689 μL of THF:MeOH:H2O (1:2:1), after which 11 μL (1.25 μmol) of glutathione solution and 5.22 μL (30 μmol) of N,N′-diisopropylethylamine were added. Conversions of the quinazolines and formation of conjugates at different time points were measured by HPLC using RP (3.9×300 mm) column (mobile phase of acetonirile and acetate buffer 0.1 M (2:3) at a flow rate of 1 ml/min was used herein). The glutathione conjugates were further detected by MS.
As discussed hereinabove, EGFR blockade by irreversible inhibitors is due to the nucleophilic attack of the sulfhydryl group of Cys-773 at the receptor's ATP binding pocket on the reactive chemical group of the EGFR targeted inhibitor. In order to evaluate the chemical reactivity of the novel irreversibly EGFR inhibitors decribed herein, the degree of reactivity of the inhibitors towards the sulfhydryl group of reduced glutathione (GSH) as a nucleophile was tested. Thus, Compound 5, Compound 6 and {4-[(3,4-dichloro-6-fluorophenyl)amino]quinazoline-6-yl}acrylamide were dissolved in THF: MeOH: H2O (1:2:1), and were reacted at room temperature with half an equivalent of reduced glutathione in the presence of 12 equivalents of N,N-diisopropylethylamine. Identical aliquots of the reaction mixtures were taken at various time points and injected into reversed-phase HPLC in order to determine the conversion-rate of the various compounds into glutathione-conjugates. The characteristics of the products were determined using MS.
A study of the reaction rate as a function of the temperature was also performed. Thus, the reaction ws performed at various temperatures ranging from 0° C. and 60° C. The following activation parameters were generated: For {4-[(3,4-dichloro-6-fluorophenyl)amino]quinazoline-6-yl}acrylamide: Ea=5.24 kCalmol^−1, ΔH^#25° C.=4.64 kCalmol^−1 and ΔS^#25° C.=−61.24 Calmol^−1K^−1. For compound 5: Ea=11.4 kCalmol^−1, ΔH^#25° C.=10.80 kCalmol^−1 and ΔS^#25° C.=−41.29 Calmol^−1K^−1.
The reaction rate was calculated using the following rate equation: [formula] kobs=Ae^−Ea/RT

T1 sequence (P00533 25-1210): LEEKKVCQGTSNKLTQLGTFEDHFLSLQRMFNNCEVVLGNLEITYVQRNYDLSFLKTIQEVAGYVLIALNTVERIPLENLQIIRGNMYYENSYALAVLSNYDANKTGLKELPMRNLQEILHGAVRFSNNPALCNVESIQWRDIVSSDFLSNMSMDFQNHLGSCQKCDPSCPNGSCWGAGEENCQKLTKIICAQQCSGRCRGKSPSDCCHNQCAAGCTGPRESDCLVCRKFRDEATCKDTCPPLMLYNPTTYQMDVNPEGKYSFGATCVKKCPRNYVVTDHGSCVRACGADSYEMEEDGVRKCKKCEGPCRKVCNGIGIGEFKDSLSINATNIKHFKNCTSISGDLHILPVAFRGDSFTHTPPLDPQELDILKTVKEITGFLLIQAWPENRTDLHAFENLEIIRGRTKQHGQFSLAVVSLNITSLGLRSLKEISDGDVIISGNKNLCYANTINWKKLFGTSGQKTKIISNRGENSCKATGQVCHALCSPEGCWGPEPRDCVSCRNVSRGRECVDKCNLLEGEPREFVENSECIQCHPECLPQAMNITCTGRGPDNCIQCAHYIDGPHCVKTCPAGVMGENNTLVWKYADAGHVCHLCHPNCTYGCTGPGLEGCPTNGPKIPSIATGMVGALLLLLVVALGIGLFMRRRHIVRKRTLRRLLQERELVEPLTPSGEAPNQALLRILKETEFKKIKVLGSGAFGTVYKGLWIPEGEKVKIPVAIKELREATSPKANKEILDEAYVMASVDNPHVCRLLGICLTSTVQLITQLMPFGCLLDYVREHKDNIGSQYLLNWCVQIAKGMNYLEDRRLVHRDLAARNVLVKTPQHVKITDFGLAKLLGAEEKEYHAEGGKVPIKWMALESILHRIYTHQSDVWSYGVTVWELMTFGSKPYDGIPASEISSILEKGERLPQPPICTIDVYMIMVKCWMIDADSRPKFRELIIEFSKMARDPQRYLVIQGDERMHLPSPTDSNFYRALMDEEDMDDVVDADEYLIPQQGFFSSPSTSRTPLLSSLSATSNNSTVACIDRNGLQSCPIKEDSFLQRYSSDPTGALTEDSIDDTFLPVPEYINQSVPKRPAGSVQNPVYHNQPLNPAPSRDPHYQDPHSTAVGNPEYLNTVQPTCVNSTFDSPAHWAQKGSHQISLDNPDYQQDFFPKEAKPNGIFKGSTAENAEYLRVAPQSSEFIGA

Question: Which results are given for `O=C(CCl)Nc1ccc2ncnc(Nc3cc(Cl)c(Cl)cc3F)c2c1` [Compound 5, N-{4-[(4,5-Dichloro-2-fluoro-phenyl)amino]-quinazolin-6-yl}-2-chloroacetamide]?
Answer: IC50 (EGFR): 5 to 15 nM; ΔH^# 25° C. of reaction with reduced glutathione ([1]; 25° C.): 10.80 kCalmol^−1; ΔS^# 25° C. of reaction with reduced glutathione ([1]; 25° C.): −41.29 Calmol^−1K^−1; activation energy Ea of reaction with reduced glutathione ([1]; temperatures from 0° C. to 60° C.): 11.4 kCalmol^−1; melting point: > 300 °C

Reference: patent publication US20060025430A1, “Novel irreversible inhibitors of epidermal growth factor receptor tyrosine kinase and uses thereof for therapy and diagnosis” (priority 2003, published 2006)
